Laboratory results taken from ChEMBL document CHEMBL1177734, “Novel tacrine-8-hydroxyquinoline hybrids as multifunctional agents for the treatment of Alzheimer's disease, with neuroprotective, cholinergic, antioxidant, and copper-complexing properties” (J Med Chem, 2010).
Activity calls are given as the source filed them. The calls are words filed in the database; no cut-off is given here.

Tests used:
Acetylcholinesterase [1] = molecular target: T1, Acetylcholinesterase (Bos taurus, UniProt P23795)
T1 sequence (P23795 whole entry): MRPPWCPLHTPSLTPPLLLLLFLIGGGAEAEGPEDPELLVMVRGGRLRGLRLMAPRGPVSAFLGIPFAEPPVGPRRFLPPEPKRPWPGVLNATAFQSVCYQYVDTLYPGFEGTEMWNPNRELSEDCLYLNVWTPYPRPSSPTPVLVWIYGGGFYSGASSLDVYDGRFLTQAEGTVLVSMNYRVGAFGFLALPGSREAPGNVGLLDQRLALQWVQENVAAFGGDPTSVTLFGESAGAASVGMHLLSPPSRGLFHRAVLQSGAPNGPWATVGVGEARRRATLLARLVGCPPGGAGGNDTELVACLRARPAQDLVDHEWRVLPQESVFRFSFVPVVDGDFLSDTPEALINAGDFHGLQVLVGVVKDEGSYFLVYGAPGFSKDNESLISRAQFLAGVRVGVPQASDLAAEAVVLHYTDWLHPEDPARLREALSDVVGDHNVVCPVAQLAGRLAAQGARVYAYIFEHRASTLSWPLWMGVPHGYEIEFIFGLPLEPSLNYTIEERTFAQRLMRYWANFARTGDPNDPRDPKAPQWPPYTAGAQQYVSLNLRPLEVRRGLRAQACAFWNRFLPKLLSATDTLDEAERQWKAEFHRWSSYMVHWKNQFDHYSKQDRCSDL
Description: Inhibition of bovine erythrocyte AChE by Ellman's reaction

[2] = Permeability by PAMPA method; format: ADME; conditions: read-out: permeability
Cholinesterase [3] = molecular target: Cholinesterase (Homo sapiens, UniProt P06276)
Chain of Cholinesterase (Homo sapiens, UniProt P06276) (P06276 whole entry): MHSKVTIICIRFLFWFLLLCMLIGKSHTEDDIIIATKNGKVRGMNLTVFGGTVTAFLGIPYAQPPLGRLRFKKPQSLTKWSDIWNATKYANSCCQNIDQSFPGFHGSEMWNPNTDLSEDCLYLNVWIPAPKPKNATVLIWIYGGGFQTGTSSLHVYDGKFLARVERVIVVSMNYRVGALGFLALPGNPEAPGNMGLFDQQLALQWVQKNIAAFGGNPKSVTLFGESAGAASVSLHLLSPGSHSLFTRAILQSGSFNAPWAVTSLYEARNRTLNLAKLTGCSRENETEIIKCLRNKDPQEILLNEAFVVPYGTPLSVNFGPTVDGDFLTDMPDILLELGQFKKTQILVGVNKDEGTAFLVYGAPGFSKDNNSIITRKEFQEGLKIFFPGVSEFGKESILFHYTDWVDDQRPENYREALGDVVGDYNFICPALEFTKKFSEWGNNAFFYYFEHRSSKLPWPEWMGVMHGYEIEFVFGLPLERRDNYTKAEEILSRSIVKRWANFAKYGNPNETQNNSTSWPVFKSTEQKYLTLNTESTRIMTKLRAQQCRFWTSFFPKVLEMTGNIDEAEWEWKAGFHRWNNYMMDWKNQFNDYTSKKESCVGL
Description: Inhibition of human serum BChE by Ellman's reaction

Acetylcholinesterase [4] = molecular target: Acetylcholinesterase (Homo sapiens, UniProt P22303)
Chain of Acetylcholinesterase (Homo sapiens, UniProt P22303) (P22303 whole entry): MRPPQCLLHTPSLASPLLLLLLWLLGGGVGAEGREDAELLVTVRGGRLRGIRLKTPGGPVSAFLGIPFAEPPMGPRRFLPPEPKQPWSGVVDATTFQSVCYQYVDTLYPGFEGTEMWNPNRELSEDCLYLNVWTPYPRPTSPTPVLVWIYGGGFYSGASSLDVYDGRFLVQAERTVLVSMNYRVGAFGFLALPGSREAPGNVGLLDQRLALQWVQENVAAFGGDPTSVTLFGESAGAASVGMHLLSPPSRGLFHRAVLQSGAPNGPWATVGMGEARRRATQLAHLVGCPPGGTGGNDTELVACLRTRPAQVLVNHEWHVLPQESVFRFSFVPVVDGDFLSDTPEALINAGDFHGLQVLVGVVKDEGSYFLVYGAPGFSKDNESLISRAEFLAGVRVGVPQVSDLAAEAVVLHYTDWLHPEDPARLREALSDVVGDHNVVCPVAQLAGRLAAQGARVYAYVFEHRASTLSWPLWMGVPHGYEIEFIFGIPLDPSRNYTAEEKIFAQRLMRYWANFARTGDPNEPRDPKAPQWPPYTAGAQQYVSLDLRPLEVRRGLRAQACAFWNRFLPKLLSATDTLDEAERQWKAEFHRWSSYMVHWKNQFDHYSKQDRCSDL
Description: Inhibition of human erythrocyte AChE by Ellman's reaction

Cholinesterase [5] = molecular target: Cholinesterase (Equus caballus, UniProt P81908)
Chain of Cholinesterase (Equus caballus, UniProt P81908) (P81908 whole entry): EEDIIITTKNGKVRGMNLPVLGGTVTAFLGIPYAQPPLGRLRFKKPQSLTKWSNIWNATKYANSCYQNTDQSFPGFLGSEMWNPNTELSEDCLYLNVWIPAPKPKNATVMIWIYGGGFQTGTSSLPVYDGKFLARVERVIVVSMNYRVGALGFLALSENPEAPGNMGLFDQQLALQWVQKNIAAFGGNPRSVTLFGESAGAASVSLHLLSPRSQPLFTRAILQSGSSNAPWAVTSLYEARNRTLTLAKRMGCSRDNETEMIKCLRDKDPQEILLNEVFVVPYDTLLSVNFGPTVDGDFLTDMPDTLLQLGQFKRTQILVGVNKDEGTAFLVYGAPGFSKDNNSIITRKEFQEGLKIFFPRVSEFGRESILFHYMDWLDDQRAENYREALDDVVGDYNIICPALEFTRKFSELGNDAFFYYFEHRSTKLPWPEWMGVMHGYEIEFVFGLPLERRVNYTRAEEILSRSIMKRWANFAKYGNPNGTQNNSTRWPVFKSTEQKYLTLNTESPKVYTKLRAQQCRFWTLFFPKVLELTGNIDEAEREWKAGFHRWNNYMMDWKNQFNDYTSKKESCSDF
Description: Inhibition of horse serum BChE by Ellman's reaction

SH-SY5Y [6] = experiment: Neuroprotective activity against rotenone-induced cell death in human SH-SY5Y cells assessed as lactate dehydrogenase release at 3 uM after 24 hrs; format: functional
[7] = Metal chelating activity assessed as formation of copper complex in Tris buffer at pH 7.4 at 22.5 uM after 1 min by UV-vis spectrometry; format: functional
[8] = Metal chelating activity assessed as formation of copper complex in Tris buffer at pH 7.4 at 22.5 uM by UV-vis spectrometry; format: functional
SH-SY5Y [9] = experiment: Cytotoxicity against human SH-SY5Y cells assessed as lactate dehydrogenase release at 3 uM after 24 hrs; format: cell-based
[10] = Metal chelating activity assessed as formation of iron complex in Tris buffer at pH 7.4 at 22.5 uM after 30 mins by UV-vis spectrometry; format: functional

Compound	IC50 (Acetylcholinesterase [1])	IC50 (Cholinesterase [5])	further results
Oc1c(CNCCCCCCCCNc2c3c(nc4ccccc24)CCCC3)cc(Cl)c2cccnc12	150 nM	–	–
Oc1c(CNCCCCCCNc2c3c(nc4ccccc24)CCCC3)ccc2cccnc12	200 nM	–	–
Cc1ccc2ccc(CNCCCCCCCCNc3c4c(nc5ccccc35)CCCC4)c(O)c2n1.Cl.Cl	75 nM	2 nM	Papp [2]: 14.1 ×10⁻⁶ cm/s; IC50 (Cholinesterase [3]): 6.5 nM; IC50 (Acetylcholinesterase [4]): 0.5 nM
CN(CCCNCc1cc(Cl)c2cccnc2c1O)CCCNc1c2c(nc3ccccc13)CCCC2	90 nM	30 nM	–
Cc1ccc2ccc(CNCCCCCCCNc3c4c(nc5ccccc35)CCCC4)c(O)c2n1	200 nM	–	–
Cc1ccc2ccc(CNCCCCCCCCCCNc3c4c(nc5ccccc35)CCCC4)c(O)c2n1	70 nM	7 nM	–
Oc1cccc2cccnc12 [OXYQUINOLINE]	–	–	IC50 (Cholinesterase [3]): > 100 nM; IC50 (Acetylcholinesterase [4]): > 100 nM
Cl.Cl.Oc1c(CNCCCCCCCCCNc2c3c(nc4ccccc24)CCCC3)ccc2cccnc12	20 nM	5 nM	Activity (SH-SY5Y [6]): 30%; Activity [7]: inactive; Activity [8]: Active; Papp [2]: 17.4 ×10⁻⁶ cm/s; Activity (SH-SY5Y [9]): Toxic; Activity [10]: inactive; IC50 (Cholinesterase [3]): 20 nM; IC50 (Acetylcholinesterase [4]): 5.5 nM
Oc1c(CNCCCCCCCCCCNc2c3c(nc4ccccc24)CCCC3)cc(Cl)c2cccnc12	100 nM	–	–
Oc1c(CNCCCCCCCNc2c3c(nc4ccccc24)CCCC3)ccc2cccnc12	25 nM	150 nM	–
CN(CCCNCc1ccc2cccnc2c1O)CCCNc1c2c(nc3ccccc13)CCCC2	80 nM	50 nM	–
Oc1c(CNCCCCCCCCNc2c3c(nc4ccccc24)CCCC3)ccc2cccnc12	90 nM	30 nM	–
Cc1ccc2ccc(CNCCCN(C)CCCNc3c4c(nc5ccccc35)CCCC4)c(O)c2n1	200 nM	–	–
Cl.Cl.Cl.Oc1c(CNCCCCCCCCCNc2c3c(nc4ccccc24)CCCC3)cc(Cl)c2cccnc12	85 nM	6.5 nM	Papp [2]: 10 ×10⁻⁶ cm/s; IC50 (Cholinesterase [3]): 55 nM; IC50 (Acetylcholinesterase [4]): 1 nM
Oc1c(CNCCCCCCCCCCNc2c3c(nc4ccccc24)CCCC3)ccc2cccnc12	50 nM	65 nM	–
Oc1c(CNCCCCCCCCCCCCNc2c3c(nc4ccccc24)CCCC3)ccc2cccnc12	250 nM	–	–
Oc1c(CNCCCCCCCCCCCCNc2c3c(nc4ccccc24)CCCC3)cc(Cl)c2cccnc12	400 nM	–	–
Cc1ccc2ccc(CNCCCCCCCCCNc3c4c(nc5ccccc35)CCCC4)c(O)c2n1	100 nM	–	–
